Molecules are shown by their SMILES.

The values that follow come from US20240293395A1, “NALTREXONE FOR IMPROVING THE […] OF 5-HT RECEPTOR SUBTYPE 2A, 2B or 2C AGONISTS” (LDN Pharma Limited, priority 2021, published 2024).

The subject of experiment [1] is mRNA for one or more of 5-HT2A, 5-HT2B or 5-HT2C receptor proteins. The experiment can be described thus: Microarray gene expression in CD3+ lymphocytes, summary statement over 5-HT2 receptors. The experiment is classed as cell-based, human. The conditions noted are these: both higher dose (10 uM) and low dose (10 nM) naltrexone, 4 h.
Experimental: (§1) CD3+ lymphocytes were isolated from the blood of haematologically normal volunteers. Cells placed into 25 cm3 flasks at a concentration of 1×10^6/ml, and left to equilibrate in an incubator with a humidified atmosphere and 5% CO2 in air at 37° C. […] RNA extraction was performed using Trizol according to standard procedures, before being processed for microarray analysis according to the standard methodologies. Briefly, equal amounts of biotinylated cRNA was hybridised to the Illumina human HT12-v3 arrays for 18 h and subsequently processed according to manufacturer's instructions before scanning on an Illumina BeadArray Reader. The image data were processed using default values in GenomeStudio v2009.1 with imputation of missing data, before loading onto GeneSpring v9.0 for data normalisation and filtering. Data analyses were performed using Excel software, and the ratio of gene expression signals in treated vs. untreated calculated.
Experiment [2] has as its system 5-HT receptor 2B (HTR2B), mRNA. The experiment is described as follows: Microarray gene expression in CD3+ lymphocytes, HTR2B probe ILMN_1735764. The format is cell-based, human. The conditions noted are these: 4 h, Illumina HT12-v3 array.
Experimental: as §1

Regarding `O=C1CC[C@@]2(O)[C@H]3Cc4ccc(O)c5c4[C@@]2(CCN3CC2CC2)[C@H]1O5` [NTX, morphinan-6-one, 17-(cyclopropylmethyl)-4,5-epoxy-3,14-dihydroxy-(5α)], the “levels of mRNA for one or more of 5-HT2A, 5-HT2B or 5-HT2C receptor proteins” value in experiment [1] is “selectively increase the levels of mRNA”. In experiment [2] (low dose naltrexone 10 nM), the “gene expression signal, LDN” value came to 147.45. Further, the “gene expression signal, NTX” value in experiment [2] (naltrexone 10 uM) came out at 177.95.
